How the values were obtained:
Assay in all cases: biochemical
Format in all cases: binding
panel of 442 kinases [1] = molecular target: T1, panel of 442 kinases (Homo sapiens, UniProt P29322); settings: EPHA8; for remaining activity at 1 µM: read-out: % of control at 1 µM
T1 construct: purchased Ambit Biosciences (scanMAXX KINOMEscan)
T1 sequence (P29322 28-1005): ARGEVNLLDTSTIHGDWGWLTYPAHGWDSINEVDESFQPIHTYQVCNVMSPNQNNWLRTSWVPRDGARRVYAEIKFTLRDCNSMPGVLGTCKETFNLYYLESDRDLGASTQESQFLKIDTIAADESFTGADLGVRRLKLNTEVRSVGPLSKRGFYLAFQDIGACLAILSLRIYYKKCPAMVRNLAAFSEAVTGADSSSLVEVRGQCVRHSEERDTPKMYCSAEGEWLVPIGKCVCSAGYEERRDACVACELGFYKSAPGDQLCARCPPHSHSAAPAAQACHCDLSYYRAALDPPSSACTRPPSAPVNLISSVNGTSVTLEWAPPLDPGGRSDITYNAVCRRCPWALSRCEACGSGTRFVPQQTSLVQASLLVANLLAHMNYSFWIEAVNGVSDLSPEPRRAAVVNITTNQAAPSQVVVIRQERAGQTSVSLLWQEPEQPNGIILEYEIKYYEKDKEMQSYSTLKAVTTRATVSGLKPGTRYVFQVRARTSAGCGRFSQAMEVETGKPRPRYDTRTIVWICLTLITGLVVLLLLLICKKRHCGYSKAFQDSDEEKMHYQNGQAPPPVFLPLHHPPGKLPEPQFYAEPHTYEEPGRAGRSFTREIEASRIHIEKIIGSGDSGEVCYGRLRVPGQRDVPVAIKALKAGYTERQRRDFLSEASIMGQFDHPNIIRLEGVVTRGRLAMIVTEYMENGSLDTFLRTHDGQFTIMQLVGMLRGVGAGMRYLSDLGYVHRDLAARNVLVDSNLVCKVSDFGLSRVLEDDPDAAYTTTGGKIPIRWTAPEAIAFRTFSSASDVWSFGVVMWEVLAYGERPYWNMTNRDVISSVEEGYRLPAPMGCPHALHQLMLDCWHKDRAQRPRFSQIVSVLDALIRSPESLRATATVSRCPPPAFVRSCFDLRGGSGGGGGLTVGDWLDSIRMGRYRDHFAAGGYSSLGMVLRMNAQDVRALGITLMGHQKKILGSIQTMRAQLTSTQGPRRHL

panel of 442 kinases [2] = molecular target: T2, panel of 442 kinases (Homo sapiens, UniProt P52333); settings: kinase JAK3(JH1domain-catalytic); for remaining activity at 1 µM: read-out: % of control at 1 µM
T2 construct: purchased Ambit Biosciences (scanMAXX KINOMEscan)
T2 sequence (P52333 1-1124): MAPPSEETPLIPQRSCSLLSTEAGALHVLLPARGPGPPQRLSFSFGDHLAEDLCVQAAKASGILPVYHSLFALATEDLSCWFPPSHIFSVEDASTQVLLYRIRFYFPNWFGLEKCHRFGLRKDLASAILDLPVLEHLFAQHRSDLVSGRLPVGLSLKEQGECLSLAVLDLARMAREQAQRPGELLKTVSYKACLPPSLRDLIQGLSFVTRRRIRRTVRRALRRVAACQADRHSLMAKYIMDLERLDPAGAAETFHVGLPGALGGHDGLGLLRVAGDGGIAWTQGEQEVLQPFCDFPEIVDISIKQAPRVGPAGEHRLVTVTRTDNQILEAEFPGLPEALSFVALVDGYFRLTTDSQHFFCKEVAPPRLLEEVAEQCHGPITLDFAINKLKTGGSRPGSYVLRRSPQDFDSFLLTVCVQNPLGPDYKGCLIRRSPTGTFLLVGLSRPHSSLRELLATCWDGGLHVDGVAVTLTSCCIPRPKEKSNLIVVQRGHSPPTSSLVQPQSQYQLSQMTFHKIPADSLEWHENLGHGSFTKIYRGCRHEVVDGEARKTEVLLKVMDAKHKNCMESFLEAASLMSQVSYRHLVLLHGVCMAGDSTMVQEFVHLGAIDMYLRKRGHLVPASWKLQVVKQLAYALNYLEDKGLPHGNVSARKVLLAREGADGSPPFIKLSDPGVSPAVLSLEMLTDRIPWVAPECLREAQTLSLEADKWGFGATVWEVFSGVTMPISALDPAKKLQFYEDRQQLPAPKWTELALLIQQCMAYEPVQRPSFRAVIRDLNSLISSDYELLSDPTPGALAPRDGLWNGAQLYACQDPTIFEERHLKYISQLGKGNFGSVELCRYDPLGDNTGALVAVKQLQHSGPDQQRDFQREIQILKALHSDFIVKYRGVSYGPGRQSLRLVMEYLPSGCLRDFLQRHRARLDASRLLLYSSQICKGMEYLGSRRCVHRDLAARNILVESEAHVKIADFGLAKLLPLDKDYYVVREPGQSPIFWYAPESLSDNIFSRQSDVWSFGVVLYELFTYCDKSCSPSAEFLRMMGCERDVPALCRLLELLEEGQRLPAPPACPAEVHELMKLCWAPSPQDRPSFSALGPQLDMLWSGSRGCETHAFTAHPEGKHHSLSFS

panel of 442 kinases [3] = molecular target: T3, panel of 442 kinases (Homo sapiens, UniProt P52564); settings: kinase MEK6; for remaining activity at 1 µM: read-out: % of control at 1 µM
T3 construct: purchased Ambit Biosciences (scanMAXX KINOMEscan)
T3 sequence (P52564 1-334): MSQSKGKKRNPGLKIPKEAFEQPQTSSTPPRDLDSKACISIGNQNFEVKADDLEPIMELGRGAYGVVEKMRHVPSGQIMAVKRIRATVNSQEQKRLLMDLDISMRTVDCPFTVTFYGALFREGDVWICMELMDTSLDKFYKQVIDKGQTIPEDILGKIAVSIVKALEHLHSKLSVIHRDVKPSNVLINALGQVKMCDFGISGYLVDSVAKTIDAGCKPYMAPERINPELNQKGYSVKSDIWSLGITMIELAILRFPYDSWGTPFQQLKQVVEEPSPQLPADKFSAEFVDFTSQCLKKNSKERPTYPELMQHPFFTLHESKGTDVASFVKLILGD

panel of 442 kinases [4] = molecular target: T4, panel of 442 kinases (Homo sapiens, UniProt O75116); settings: kinase ROCK2; for remaining activity at 1 µM: read-out: ROCK2 (% of control at 1 µM)
T4 construct: purchased Ambit Biosciences (scanMAXX KINOMEscan)
T4 sequence (O75116 whole entry): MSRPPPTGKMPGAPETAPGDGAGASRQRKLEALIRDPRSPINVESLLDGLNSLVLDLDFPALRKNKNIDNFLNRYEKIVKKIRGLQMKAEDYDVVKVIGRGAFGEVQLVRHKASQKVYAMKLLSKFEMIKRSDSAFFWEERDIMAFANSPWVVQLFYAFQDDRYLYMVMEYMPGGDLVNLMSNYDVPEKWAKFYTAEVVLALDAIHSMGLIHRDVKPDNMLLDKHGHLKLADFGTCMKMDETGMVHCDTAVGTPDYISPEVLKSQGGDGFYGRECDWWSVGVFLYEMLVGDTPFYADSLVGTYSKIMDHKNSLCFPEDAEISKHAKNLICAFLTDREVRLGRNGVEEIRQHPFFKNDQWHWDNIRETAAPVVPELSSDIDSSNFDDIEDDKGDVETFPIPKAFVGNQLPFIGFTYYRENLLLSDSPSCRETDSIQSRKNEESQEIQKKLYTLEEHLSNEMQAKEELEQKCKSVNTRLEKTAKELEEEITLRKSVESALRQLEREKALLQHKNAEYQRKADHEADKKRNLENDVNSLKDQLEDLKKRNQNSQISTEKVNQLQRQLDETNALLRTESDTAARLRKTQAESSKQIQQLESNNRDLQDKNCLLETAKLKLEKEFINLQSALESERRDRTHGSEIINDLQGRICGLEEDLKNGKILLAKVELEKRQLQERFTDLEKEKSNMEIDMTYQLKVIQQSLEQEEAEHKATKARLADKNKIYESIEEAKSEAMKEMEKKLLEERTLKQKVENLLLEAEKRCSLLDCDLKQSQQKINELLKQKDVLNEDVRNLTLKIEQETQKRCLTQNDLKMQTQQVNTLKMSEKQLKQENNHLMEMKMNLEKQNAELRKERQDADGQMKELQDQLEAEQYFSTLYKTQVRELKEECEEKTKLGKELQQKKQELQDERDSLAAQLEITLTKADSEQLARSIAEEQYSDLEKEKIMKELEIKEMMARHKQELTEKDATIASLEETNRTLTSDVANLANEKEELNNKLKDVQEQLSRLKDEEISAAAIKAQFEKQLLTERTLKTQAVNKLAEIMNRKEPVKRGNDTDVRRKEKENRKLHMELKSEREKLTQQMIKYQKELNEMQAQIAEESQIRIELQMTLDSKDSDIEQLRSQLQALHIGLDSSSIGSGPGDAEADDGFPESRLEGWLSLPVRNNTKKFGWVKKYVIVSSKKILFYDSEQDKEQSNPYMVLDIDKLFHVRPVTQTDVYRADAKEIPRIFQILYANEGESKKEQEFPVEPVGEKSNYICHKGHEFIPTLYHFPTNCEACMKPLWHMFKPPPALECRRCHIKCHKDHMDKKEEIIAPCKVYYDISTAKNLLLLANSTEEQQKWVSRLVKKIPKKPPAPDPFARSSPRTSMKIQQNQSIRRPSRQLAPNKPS

[5] = 10 µM, read-out: % of control at 10 µM

Question: For `Nc1cc(C(F)(F)F)c(-c2cc(N3CCOCC3)nc(N3CCOCC3)n2)cn1` [Buparlisib], which remaining activity at 1 µM (panel of 442 kinases [1]) is on record?
Answer: The remaining activity at 1 µM was 100%.

Question: What about the remaining activity at 10 µM (panel of 442 kinases [1]; [5]) of the same compound?
Answer: The remaining activity at 10 µM was 100%.

Question: What about the remaining activity at 1 µM (panel of 442 kinases [2]) of the same compound?
Answer: Its remaining activity at 1 µM is 90%.

Question: What about the remaining activity at 10 µM (panel of 442 kinases [2]; [5]) of the same compound?
Answer: Its remaining activity at 10 µM is 89%.

Question: And the remaining activity at 1 µM (panel of 442 kinases [3])?
Answer: Its remaining activity at 1 µM is 90%.

Question: And the remaining activity at 10 µM (panel of 442 kinases [3]; [5])?
Answer: The remaining activity at 10 µM was 85%.

Question: What about the remaining activity at 1 µM (panel of 442 kinases [4]) of the same compound?
Answer: Its remaining activity at 1 µM is 100%.

Question: And the remaining activity at 10 µM (panel of 442 kinases [4]; 10 µM, read-out: ROCK2 (% of control at 10 µM))?
Answer: Its remaining activity at 10 µM is 89%.

Question: What does the source list for `Cn1c(=O)n(-c2ccc(C(C)(C)C#N)cc2)c2c3cc(-c4cnc5ccccc5c4)ccc3ncc21` [Dactolisib, 2-methyl-2-[4-(3-methyl-2-oxo-8-quinolin-3-yl-2,3-dihydroimidazo[4,5-c]quinolin-1-yl)-phenyl] propionitrile]?
Answer: remaining activity at 1 µM (panel of 442 kinases [1]): 94%; remaining activity at 1 µM (panel of 442 kinases [2]): 37%; remaining activity at 1 µM (panel of 442 kinases [3]): 96%; remaining activity at 1 µM (panel of 442 kinases [4]): 60%

Question: How did the remaining activity at 1 µM (panel of 442 kinases [1]) turn out when `COc1ncc(-c2ccc3nccc(-c4ccnnc4)c3c2)cc1NS(=O)(=O)c1ccc(F)cc1F` [Omipalisib] was run?
Answer: Its remaining activity at 1 µM is 100%.

Question: And the remaining activity at 1 µM (panel of 442 kinases [2])?
Answer: The remaining activity at 1 µM was 82%.

Question: And the remaining activity at 1 µM (panel of 442 kinases [3])?
Answer: Its remaining activity at 1 µM is 51%.

Question: What about the remaining activity at 1 µM (panel of 442 kinases [4]) of the same compound?
Answer: Its remaining activity at 1 µM is 89%.

Question: What does the source list for `FC(F)c1nc2ccccc2n1-c1nc(N2CCOCC2)nc(N2CCOCC2)n1` [ZSTK474, 2-(difluoromethyl)-1-[4,6-di(4-morpholinyl)-1,3,5-triazin-2-yl]-1H-benzimidazole]?
Answer: remaining activity at 1 µM (panel of 442 kinases [1]): 100%; remaining activity at 1 µM (panel of 442 kinases [2]): 100%; remaining activity at 1 µM (panel of 442 kinases [3]): 97%; remaining activity at 1 µM (panel of 442 kinases [4]): 86%

— article PMC5564600 (Oncotarget, 2017)
